{"source": "PubChem BioAssay (NCI)", "test_in_all_cases": "NCI anticancer screen, dose series, 48 h", "key": {"786-0 renal": {"tested_on": "786-0 renal"}, "A498 renal": {"tested_on": "A498 renal"}, "A549 NSCLC": {"tested_on": "A549 NSCLC"}, "ACHN renal": {"tested_on": "ACHN renal"}, "BT-549 breast": {"tested_on": "BT-549 breast"}, "CAKI-1 renal": {"tested_on": "CAKI-1 renal"}, "CCRF-CEM leukemia": {"tested_on": "CCRF-CEM leukemia"}, "COLO 205 colon": {"tested_on": "COLO 205 colon"}, "DU-145 prostate": {"tested_on": "DU-145 prostate"}, "EKVX NSCLC": {"tested_on": "EKVX NSCLC"}, "HCC-2998 colon": {"tested_on": "HCC-2998 colon"}, "HCT-116 colon": {"tested_on": "HCT-116 colon"}, "HCT-15 colon": {"tested_on": "HCT-15 colon"}, "HL-60(TB) leukemia": {"tested_on": "HL-60(TB) leukemia"}, "HOP-62 NSCLC": {"tested_on": "HOP-62 NSCLC"}, "HOP-92 NSCLC": {"tested_on": "HOP-92 NSCLC"}, "HS 578T breast": {"tested_on": "HS 578T breast"}, "HT29 colon": {"tested_on": "HT29 colon"}, "IGROV1 ovarian": {"tested_on": "IGROV1 ovarian"}, "K-562 leukemia": {"tested_on": "K-562 leukemia"}, "KM12 colon": {"tested_on": "KM12 colon"}, "LOX IMVI melanoma": {"tested_on": "LOX IMVI melanoma"}, "M14 melanoma": {"tested_on": "M14 melanoma"}, "MALME-3M melanoma": {"tested_on": "MALME-3M melanoma"}, "MCF7 breast": {"tested_on": "MCF7 breast"}, "MDA-MB-231 breast": {"tested_on": "MDA-MB-231 breast"}, "MDA-MB-435": {"tested_on": "MDA-MB-435"}, "MOLT-4 leukemia": {"tested_on": "MOLT-4 leukemia"}, "NCI-H226 lung": {"tested_on": "NCI-H226 lung"}, "NCI-H23 lung": {"tested_on": "NCI-H23 lung"}, "NCI-H460 lung": {"tested_on": "NCI-H460 lung"}, "NCI-H522 lung": {"tested_on": "NCI-H522 lung"}, "NCI/ADR-RES ovarian": {"tested_on": "NCI/ADR-RES ovarian"}, "OVCAR-3 ovarian": {"tested_on": "OVCAR-3 ovarian"}, "OVCAR-4 ovarian": {"tested_on": "OVCAR-4 ovarian"}, "OVCAR-5 ovarian": {"tested_on": "OVCAR-5 ovarian"}, "OVCAR-8 ovarian": {"tested_on": "OVCAR-8 ovarian"}, "PC-3 prostate": {"tested_on": "PC-3 prostate"}, "RPMI-8226 leukemia": {"tested_on": "RPMI-8226 leukemia"}, "RXF 393 renal": {"tested_on": "RXF 393 renal"}, "SF-268 CNS": {"tested_on": "SF-268 CNS"}, "SF-295 CNS": {"tested_on": "SF-295 CNS"}, "SK-MEL-2 melanoma": {"tested_on": "SK-MEL-2 melanoma"}, "SK-MEL-28 melanoma": {"tested_on": "SK-MEL-28 melanoma"}, "SK-MEL-5 melanoma": {"tested_on": "SK-MEL-5 melanoma"}, "SK-OV-3 ovarian": {"tested_on": "SK-OV-3 ovarian"}, "SN12C renal": {"tested_on": "SN12C renal"}, "SNB-19 CNS": {"tested_on": "SNB-19 CNS"}, "SNB-75 CNS": {"tested_on": "SNB-75 CNS"}, "SR leukemia": {"tested_on": "SR leukemia"}, "SW-620 colon": {"tested_on": "SW-620 colon"}, "T-47D breast": {"tested_on": "T-47D breast"}, "TK-10 renal": {"tested_on": "TK-10 renal"}, "U251 CNS": {"tested_on": "U251 CNS"}, "UACC-257 melanoma": {"tested_on": "UACC-257 melanoma"}, "UACC-62 melanoma": {"tested_on": "UACC-62 melanoma"}, "UO-31 renal": {"tested_on": "UO-31 renal"}}, "note": "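Results reflect a 48-hour exposure of cells in 96-well plates to compound at five concentrations. TGI denotes the concentration required for complete inhibition of growth.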"}
{"molecule": "COc1ccc(N2C(=O)C3c4[nH]c5ccc(C)cc5c4C4CCC(c5ccccc5)CC4C3C2=O)cc1", "note": "(configuration not stated)", "values": [{"measurement": "TGI", "setting": "786-0 renal", "result": "> 62.2", "unit": "µM"}, {"measurement": "TGI", "setting": "A498 renal", "result": "> 68.8", "unit": "µM"}, {"measurement": "TGI", "setting": "A549 NSCLC", "result": "> 100", "unit": "µM"}, {"measurement": "TGI", "setting": "ACHN renal", "result": "> 100", "unit": "µM"}, {"measurement": "TGI", "setting": "BT-549 breast", "result": "> 100", "unit": "µM"}, {"measurement": "TGI", "setting": "CAKI-1 renal", "result": "> 72.5", "unit": "µM"}, {"measurement": "TGI", "setting": "CCRF-CEM leukemia", "result": "> 55.5", "unit": "µM"}, {"measurement": "TGI", "setting": "COLO 205 colon", "result": "> 100", "unit": "µM"}, {"measurement": "TGI", "setting": "DU-145 prostate", "result": "> 100", "unit": "µM"}, {"measurement": "TGI", "setting": "EKVX NSCLC", "result": "> 100", "unit": "µM"}, {"measurement": "TGI", "setting": "HCC-2998 colon", "result": "> 100", "unit": "µM"}, {"measurement": "TGI", "setting": "HCT-116 colon", "result": "> 100", "unit": "µM"}, {"measurement": "TGI", "setting": "HCT-15 colon", "result": "> 100", "unit": "µM"}, {"measurement": "TGI", "setting": "HL-60(TB) leukemia", "result": "> 100", "unit": "µM"}, {"measurement": "TGI", "setting": "HOP-62 NSCLC", "result": 26.8, "unit": "µM"}, {"measurement": "TGI", "setting": "HOP-92 NSCLC", "result": "> 90.2", "unit": "µM"}, {"measurement": "TGI", "setting": "HS 578T breast", "result": "> 73.4", "unit": "µM"}, {"measurement": "TGI", "setting": "HT29 colon", "result": "> 100", "unit": "µM"}, {"measurement": "TGI", "setting": "IGROV1 ovarian", "result": "> 100", "unit": "µM"}, {"measurement": "TGI", "setting": "K-562 leukemia", "result": 98.9, "unit": "µM"}, {"measurement": "TGI", "setting": "KM12 colon", "result": "> 100", "unit": "µM"}, {"measurement": "TGI", "setting": "LOX IMVI melanoma", "result": "> 100", "unit": "µM"}, {"measurement": "TGI", "setting": "M14 melanoma", "result": "> 100", "unit": "µM"}, {"measurement": "TGI", "setting": "MALME-3M melanoma", "result": "> 100", "unit": "µM"}, {"measurement": "TGI", "setting": "MCF7 breast", "result": "> 100", "unit": "µM"}, {"measurement": "TGI", "setting": "MDA-MB-231 breast", "result": "> 49.5", "unit": "µM"}, {"measurement": "TGI", "setting": "MDA-MB-435", "result": "> 100", "unit": "µM"}, {"measurement": "TGI", "setting": "MOLT-4 leukemia", "result": "> 100", "unit": "µM"}, {"measurement": "TGI", "setting": "NCI-H226 lung", "result": "> 100", "unit": "µM"}, {"measurement": "TGI", "setting": "NCI-H23 lung", "result": "> 100", "unit": "µM"}, {"measurement": "TGI", "setting": "NCI-H460 lung", "result": "> 100", "unit": "µM"}, {"measurement": "TGI", "setting": "NCI-H522 lung", "result": "> 100", "unit": "µM"}, {"measurement": "TGI", "setting": "NCI/ADR-RES ovarian", "result": "> 100", "unit": "µM"}, {"measurement": "TGI", "setting": "OVCAR-3 ovarian", "result": "> 100", "unit": "µM"}, {"measurement": "TGI", "setting": "OVCAR-4 ovarian", "result": "> 82.3", "unit": "µM"}, {"measurement": "TGI", "setting": "OVCAR-5 ovarian", "result": "> 100", "unit": "µM"}, {"measurement": "TGI", "setting": "OVCAR-8 ovarian", "result": "> 83.9", "unit": "µM"}, {"measurement": "TGI", "setting": "PC-3 prostate", "result": "> 100", "unit": "µM"}, {"measurement": "TGI", "setting": "RPMI-8226 leukemia", "result": "> 100", "unit": "µM"}, {"measurement": "TGI", "setting": "RXF 393 renal", "result": 41, "unit": "µM"}, {"measurement": "TGI", "setting": "SF-268 CNS", "result": "> 100", "unit": "µM"}, {"measurement": "TGI", "setting": "SF-295 CNS", "result": "> 100", "unit": "µM"}, {"measurement": "TGI", "setting": "SK-MEL-2 melanoma", "result": "> 69.4", "unit": "µM"}, {"measurement": "TGI", "setting": "SK-MEL-28 melanoma", "result": "> 100", "unit": "µM"}, {"measurement": "TGI", "setting": "SK-MEL-5 melanoma", "result": "> 100", "unit": "µM"}, {"measurement": "TGI", "setting": "SK-OV-3 ovarian", "result": "> 100", "unit": "µM"}, {"measurement": "TGI", "setting": "SN12C renal", "result": "> 100", "unit": "µM"}, {"measurement": "TGI", "setting": "SNB-19 CNS", "result": "> 66.5", "unit": "µM"}, {"measurement": "TGI", "setting": "SNB-75 CNS", "result": 12, "unit": "µM"}, {"measurement": "TGI", "setting": "SR leukemia", "result": 23.6, "unit": "µM"}, {"measurement": "TGI", "setting": "SW-620 colon", "result": "> 100", "unit": "µM"}, {"measurement": "TGI", "setting": "T-47D breast", "result": "> 100", "unit": "µM"}, {"measurement": "TGI", "setting": "TK-10 renal", "result": "> 75.3", "unit": "µM"}, {"measurement": "TGI", "setting": "U251 CNS", "result": 98.6, "unit": "µM"}, {"measurement": "TGI", "setting": "UACC-257 melanoma", "result": "> 100", "unit": "µM"}, {"measurement": "TGI", "setting": "UACC-62 melanoma", "result": "> 79.5", "unit": "µM"}, {"measurement": "TGI", "setting": "UO-31 renal", "result": "> 100", "unit": "µM"}]}
